A word on the half-life: it is the time in which the quantity being followed falls by half. A high value points to slow decline. Broadly, the Tmax is the time from dosing to the highest level. One may read the AUC(0-t) as exposure summed from dosing to a finite time, without extrapolation to infinity. Read a low AUC(0-t) as low exposure. What is called AUC(0-inf) is total exposure, with the tail of the curve extrapolated. A higher AUC(0-inf) goes with more exposure. A word on the clearance: it is the volume of plasma or blood freed of the substance per unit of time. Read a high clearance as a high capacity for elimination. Usually MRT last stands for the average time that molecules of a dose stay in the body. Usually Vd stands for a proportionality between amount in the body and measured concentration, not a real space. As a reminder, the Cmax is the maximum level reached in the sampled fluid or tissue.

The values that follow come from US11547681B2, “N-acylethanolamide derivatives and uses thereof” (ELIEM THERAPEUTICS, INC., priority 2016, dated 2023).

Series [1] can be described thus: Summary of half life data (Table A), matrix not stated. Format: in vitro ADME.
Series [2] in a line: Simulated intestinal fluid stability, SIF containing pancreatin. The format is in vitro ADME. Particulars: for % Remaining of Initial (n = 1): 1 μM; for Measured Concentration of Drug: test article dosed at 1 μM. As for the experimental part: (§1) Studies were carried out in simulated intestinal fluid containing pancreatin. Simulated intestinal fluid was prepared by dissolving 6.8 g of monobasic potassium phosphate in 1.0 L of water. Pancreatin was then added to the solution and the pH was adjusted to 6.8. A DMSO stock was first prepared for the test articles. Aliquots of the DMSO solution were dosed into 300 μL of matrix, which had been pre-warmed to 37° C., at a final test article concentration of 1 μM. An individual tube was dosed for each time point. At each time point (0, 15, 30, 60, and 120 minutes), 900 μL of ice-cold acetonitrile containing 1.0% formic acid was added to an individual tube. Starting time for each tube was staggered such that all timepoints would finish at the same time. After the conclusion of the experiment, tubes were mixed and then centrifuged at 3,000 rpm for 10 minutes. Calibration standards were prepared in matched matrix. […] Analytical conditions are outlined in Appendix 11-1.
as §1, with “prepared for test articles.” for “prepared for the test articles.”, “Aliquots of DMSO solution” for “Aliquots of the DMSO solution”, “individual tube. The starting time for” for “individual tube. Starting time for”, “that all time points would finish” for “that all timepoints would finish”, “in Appendix 14-1.” for “in Appendix 11-1.”

The conditions of series [3]: male, Sprague-Dawley, rat, in vivo, po.
Method: (§2) PEA was also dosed intravenously at 1 mg/kg. Blood samples were collected up to 8 hours post-dose, and PEA and PEA-prodrug plasma concentrations were determined with a qualified LC-MS/MS method. Pharmacokinetic analysis was conducted by a non-compartmental model using Phoenix WinNonlin v.6.4 software.
(§3) The IV dosing solution was prepared fresh on the day of dosing at 0.5 mg/mL in a vehicle comprised of 10% solutol HS15, 10% n-methylpyrrolidone (NMP), 10% polyethylene glycol 400 (PEG400), and 70% water. For PO dosing, torpac capsules were loaded with an appropriate amount of PEA, PEA-prodrug, or normast powder. […] The prodrug dose in group 5 was the maximum amount of powder that would fit into a single capsule.
(§4) The pharmacokinetics of PEA and the PEA-prodrug were evaluated in fasted male Sprague-Dawley rats. Rats were housed one per cage. Each rat was fitted with a jugular vein cannula (JVC) for blood collection. Rats intended for IV dosing were fitted with an additional JVC for dosing. Each study group was dosing in triplicate. Rats were fasted for a minimum of twelve hours prior to dosing. Food was returned at four hours post dosing. Animals had free access to water throughout the study.
(§5) Blood samples (˜300 μL) were collected from the rats via a JVC and placed into chilled polypropylene tubes containing sodium heparin as an anticoagulant, and 30 μL of 0.5 M citric acid. Samples were maintained chilled throughout processing. Blood samples were centrifuged at 4° C. and 3,000 g for 5 minutes. Plasma (˜150 μL) was then transferred to a chilled, labeled polypropylene tube containing 15 μL of 10% formic acid, placed on dry ice, and stored in a freezer maintained at −60° C. to −80° C.
(§6) Pharmacokinetic parameters were determined with Phoenix WinNonlin (v6.4) software using a non-compartmental model. Maximum plasma concentrations (C0) after IV dosing were estimated by extrapolation of the first two time points back to t=0. […] Area under the time concentration curve (AUC) was calculated using the linear trapezoidal rule with calculation to the last quantifiable data point, and with extrapolation to infinity if applicable. […] Mean residence time, MRT, was calculated by dividing the area under the moment curve (AUMC) by the AUC. Clearance (CL) was calculated from dose/AUC. Steady-state volume of distribution (Vss) was calculated from CL*MRT (mean residence time). Bioavailability was determined by dividing the individual PO dose normalized AUClast values by the average IV AUClast value. Any samples below the limit of quantitation were treated as zero for pharmacokinetic data analysis.
(§7) Measured concentrations of PEA in plasma samples were corrected by subtracting the concentration of PEA measured in the pre-dose samples. […] Any corrected values that were negative are reported as not determined (ND).
Series [4] in a line: Pharmacokinetics of PEA after intravenous administration in male Sprague-Dawley rats. Particulars: for AUC(0-t): AUClast; for MRT last: MRTlast. Format: in vivo, Sprague-Dawley rat. As for the experimental part: Rats were housed one per cage. […] Each study group was dosing in triplicate.
Samples were maintained chilled throughout processing.
Clearance (CL) was calculated from dose/AUC.

Series [5] can be described thus: in vivo. Particulars: male, Sprague-Dawley, rat, plasma, po, 10 mg/kg.
Method: as §2, §3, §4, §5, §6, §7
In series [6] the test system is patients with pain. Particulars: meta-analysis of 12 PEA pain studies; placebo 21%; cited from earlier work.
Setting [7] is: male, Sprague-Dawley, rat, in vivo, iv, 1 mg/kg, Mean.
[8] abbreviates: male, Sprague-Dawley, rat, in vivo, iv, 1 mg/kg, individual rats.
Setting [9] is: male, Sprague-Dawley, rat, in vivo, iv, 1 mg/kg, Plasma concentration of PEA, Mean.
Setting [10] is: male, Sprague-Dawley, rat, in vivo, iv, 1 mg/kg, Plasma concentration of PEA, individual rats.

Turning to `CCCCCCCCCCCCCCCC(=O)NCCOC(=O)CCC(=O)OC[C@@H](COC(=O)CCC)OC(=O)CCC` [Compound I-15], the half-life in series [1] is less than 1 min. The “% Remaining of Initial (n = 1)” value is on record as 100% in series [2] (0 min); less than 2.2% in series [2] (15 min); less than 2.2% in series [2] (30 min); less than 2.2% in series [2] (60 min); less than 2.2% in series [2] (120 min). Moreover, the “Measured Concentration of Drug” value in series [2] (0 min) was 0.18 µM; in series [2] (15 min), 0 µM; in series [2] (30 min), 0 µM; in series [2] (60 min) it was 0 µM; in series [2] (120 min), 0 µM. In series [3], this molecule registered a Bioavailability of 3.42%.
Turning to `CCCCCCCCCCCCCCCC(=O)NCCO` [PEA, palmitoylethanolamide], the “C0, Mean” value in series [4] (PEA IV 1 mg/kg, extrapolated to t = 0) is recorded as 251 ng/mL. In addition, the Tmax in series [4] (male, Sprague-Dawley, rat, in vivo, iv, 1 mg/kg) stood at 0 h. In addition, in series [4] (setting [7]), the exposure AUC(0-t) was found to be 62.1 ng·h/mL, the AUC(0-inf) was 68.4 ng·h/mL and the MRT last amounted to 24.1 min. Besides, in series [4] (setting [8]), the AUC(0-t) was 53.3 ng·h/mL, the AUC(0-inf) was 57.6 ng·h/mL and the mean residence time MRT last stood at 23.9 min. In addition, the clearance in series [4] (male, Sprague-Dawley, rat, in vivo, iv, 1 mg/kg, CL (average clearance rate), Mean) is 252 mL/min/kg. The same molecule gave a clearance in series [4] (male, Sprague-Dawley, rat, in vivo, iv, 1 mg/kg, CL, individual rats) of 290 mL/min/kg. In series [4] (setting [9]), this molecule gave a concentration at 0.083 hr of 144 ng/mL, a concentration at 0.25 hr of 48.2 ng/mL, a concentration at 0.5 hr of 31.2 ng/mL and a concentration at 1 hr of 11.2 ng/mL. The concentration at 2 hr in series [4] (setting [9]) was 6.91 ng/mL. Also, in series [4] (setting [10]), the concentration at 0.083 hr was determined as 122 ng/mL, the concentration at 0.25 hr came out at 47.2 ng/mL, the concentration at 0.5 hr came to 27.5 ng/mL and the concentration at 2 hr turned out to be 5.2 ng/mL. For the same molecule, the Vd in series [4] (male, Sprague-Dawley, rat, in vivo, iv, 1 mg/kg, Vss (average volume of distribution), Mean) came out at 9.12 ± 0.832 L/kg. Also, in series [4] (male, Sprague-Dawley, rat, in vivo, iv, 1 mg/kg, Vss, individual rats), the Vd stood at 10 L/kg. The half-life in series [4] (male, Sprague-Dawley, rat, in vivo, iv, 1 mg/kg, t1/2 (average half-life), Mean) is 35.8 ± 9.9 min. The half-life in series [4] (male, Sprague-Dawley, rat, in vivo, iv, 1 mg/kg, t1/2, individual rats) was 33.8 min. In series [5], the highest concentration (Cmax) was found to be 5.3 ng/mL, the Tmax came to 120 min, the concentration at 1 hr amounted to 2.34 ng/mL and the concentration at 2 hr was 5.3 ng/mL. Moreover, the “treated patients achieving VAS scores <=3” value in series [6] is 67%.
